Test results: PubChem BioAssay (NCI)
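Step 1: Grow cells in 96-well plates. Step 2: Expose to compound for 48 hours at 5 concentrations. Step 3: Interpolate endpoints linearly; if unreached, use highest concentration. Abbreviation: GI50, concentration required for 50% inhibition of growth. TGI marks complete inhibition of growth.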

What was measured:
Assay in all cases: DTP human tumour cell line panel, 48 h
[1] = tested on: MALME-3M melanoma
[2] = tested on: UACC-62 melanoma
[3] = tested on: LOX IMVI melanoma
[4] = tested on: SK-MEL-2 melanoma
[5] = tested on: HT29 colon
[6] = tested on: SF-268 CNS
[7] = tested on: PC-3 prostate
[8] = tested on: CCRF-CEM leukemia
[9] = tested on: HCC-2998 colon
[10] = tested on: OVCAR-8 ovarian
[11] = tested on: SR leukemia
[12] = tested on: BT-549 breast
[13] = tested on: MDA-MB-435
[14] = tested on: OVCAR-5 ovarian
[15] = tested on: K-562 leukemia
[16] = tested on: HL-60(TB) leukemia
[17] = tested on: 786-0 renal
[18] = tested on: U251 CNS
[19] = tested on: EKVX NSCLC
[20] = tested on: OVCAR-3 ovarian
[21] = tested on: TK-10 renal
[22] = tested on: SNB-75 CNS
[23] = tested on: MDA-MB-231 breast
[24] = tested on: MCF7 breast
[25] = tested on: M14 melanoma
[26] = tested on: COLO 205 colon
[27] = tested on: HS 578T breast
[28] = tested on: UACC-257 melanoma
[29] = tested on: RPMI-8226 leukemia
[30] = tested on: SK-OV-3 ovarian
[31] = tested on: NCI-H226 lung
[32] = tested on: SNB-19 CNS
[33] = tested on: SF-539 CNS
[34] = tested on: HOP-62 NSCLC
[35] = tested on: HCT-116 colon
[36] = tested on: OVCAR-4 ovarian
[37] = tested on: A549 NSCLC
[38] = tested on: HCT-15 colon
[39] = tested on: SW-620 colon
[40] = tested on: NCI/ADR-RES ovarian
[41] = tested on: SK-MEL-5 melanoma
[42] = tested on: DU-145 prostate
[43] = tested on: T-47D breast
[44] = tested on: NCI-H23 lung
[45] = tested on: MOLT-4 leukemia
[46] = tested on: HOP-92 NSCLC
[47] = tested on: IGROV1 ovarian
[48] = tested on: ACHN renal
[49] = tested on: SF-295 CNS
[50] = tested on: KM12 colon
[51] = tested on: SN12C renal
[52] = tested on: NCI-H460 lung
[53] = tested on: SK-MEL-28 melanoma
[54] = tested on: RXF 393 renal
[55] = tested on: UO-31 renal
[56] = tested on: NCI-H522 lung
[57] = tested on: A498 renal
[58] = tested on: CAKI-1 renal

O=C1C2=C(C(=O)c3c(O)ccc(O)c31)N(c1ccc(N3CCOCC3)nc1)Cc1ccccc1O2
GI50 [1]: 134 nM
TGI [1]: 418 nM
GI50 [2]: 369 nM
TGI [2]: 1560 nM
GI50 [3]: 188 nM
TGI [3]: 517 nM
GI50 [4]: 1390 nM
TGI [4]: 3750 nM
GI50 [5]: 294 nM
TGI [5]: 787 nM
GI50 [6]: 1370 nM
TGI [6]: 4060 nM
GI50 [7]: 387 nM
TGI [7]: 1890 nM
GI50 [8]: 77.8 nM
GI50 [9]: 1560 nM
TGI [9]: 2990 nM
GI50 [10]: 350 nM
TGI [10]: 12300 nM
GI50 [11]: 108 nM
TGI [11]: > 100000 nM
GI50 [12]: 249 nM
TGI [12]: 845 nM
GI50 [13]: 321 nM
TGI [13]: 1050 nM
GI50 [14]: 777 nM
TGI [14]: 2300 nM
GI50 [15]: 88.9 nM
GI50 [16]: 170 nM
TGI [16]: 616 nM
GI50 [17]: 206 nM
TGI [17]: 450 nM
GI50 [18]: 603 nM
TGI [18]: 2210 nM
GI50 [19]: 270 nM
TGI [19]: 1670 nM
GI50 [20]: 227 nM
TGI [20]: 651 nM
GI50 [21]: 339 nM
TGI [21]: 947 nM
GI50 [22]: 1240 nM
TGI [22]: 7270 nM
GI50 [23]: 243 nM
TGI [23]: 814 nM
GI50 [24]: 161 nM
TGI [24]: 658 nM
GI50 [25]: 276 nM
TGI [25]: 894 nM
GI50 [26]: 137 nM
TGI [26]: 318 nM
GI50 [27]: 1520 nM
TGI [27]: > 55400 nM
GI50 [28]: 556 nM
TGI [28]: 1520 nM
GI50 [29]: 265 nM
TGI [29]: 945 nM
GI50 [30]: 2890 nM
TGI [30]: 11800 nM
GI50 [31]: 1910 nM
TGI [31]: 7810 nM
GI50 [32]: 1450 nM
TGI [32]: 3600 nM
GI50 [33]: 276 nM
TGI [33]: 944 nM
GI50 [34]: 1520 nM
TGI [34]: 3970 nM
GI50 [35]: 96.6 nM
TGI [35]: 332 nM
GI50 [36]: 282 nM
TGI [36]: 1050 nM
GI50 [37]: 2880 nM
TGI [37]: 9110 nM
GI50 [38]: 205 nM
TGI [38]: 622 nM
GI50 [39]: 152 nM
TGI [39]: 500 nM
GI50 [40]: 401 nM
TGI [40]: 13000 nM
GI50 [41]: 1360 nM
TGI [41]: 2760 nM
GI50 [42]: 326 nM
TGI [42]: 1030 nM
GI50 [43]: 205 nM
TGI [43]: 900 nM
GI50 [44]: 421 nM
TGI [44]: 1880 nM
GI50 [45]: 87.2 nM
GI50 [46]: 202 nM
TGI [46]: 469 nM
GI50 [47]: 277 nM
TGI [47]: 1140 nM
GI50 [48]: 53.4 nM
TGI [48]: 237 nM
GI50 [49]: 2010 nM
TGI [49]: 4630 nM
GI50 [50]: 1550 nM
TGI [50]: 3920 nM
GI50 [51]: 262 nM
TGI [51]: 848 nM
GI50 [52]: 1310 nM
TGI [52]: 4060 nM
GI50 [53]: 275 nM
TGI [53]: 785 nM
GI50 [54]: 148 nM
TGI [54]: 308 nM
GI50 [55]: 131 nM
TGI [55]: 429 nM
GI50 [56]: 58.1 nM
TGI [56]: 194 nM
GI50 [57]: 2300 nM
TGI [57]: 4740 nM

Fc1ccc(-c2nc(-c3nc4ccc(Cl)cc4[nH]3)cc3c2[nH]c2ccccc23)cc1
GI50 [1]: 4540 nM
TGI [1]: 17300 nM
GI50 [2]: 2280 nM
TGI [2]: 6900 nM
GI50 [3]: 2410 nM
TGI [3]: 6630 nM
GI50 [4]: 2760 nM
TGI [4]: 7540 nM
GI50 [5]: 4310 nM
TGI [5]: 12800 nM
GI50 [6]: 3660 nM
TGI [6]: 17700 nM
GI50 [7]: 2090 nM
TGI [7]: 6950 nM
GI50 [8]: 3370 nM
TGI [8]: 20300 nM
GI50 [9]: 5560 nM
TGI [9]: 20200 nM
GI50 [10]: 2880 nM
TGI [10]: 10700 nM
GI50 [11]: 3710 nM
TGI [11]: > 100000 nM
GI50 [12]: 4620 nM
TGI [12]: 18700 nM
GI50 [13]: 3590 nM
TGI [13]: 14300 nM
GI50 [14]: 6130 nM
TGI [14]: 22100 nM
GI50 [15]: 3320 nM
TGI [15]: 38400 nM
GI50 [16]: 4320 nM
TGI [16]: 17800 nM
GI50 [17]: 5710 nM
TGI [17]: 18700 nM
GI50 [18]: 3310 nM
TGI [18]: 18000 nM
GI50 [20]: 2740 nM
TGI [20]: 6870 nM
GI50 [21]: 3350 nM
TGI [21]: 9860 nM
GI50 [23]: 2880 nM
TGI [23]: 13600 nM
GI50 [24]: 3270 nM
TGI [24]: 16600 nM
GI50 [25]: 3050 nM
TGI [25]: 11400 nM
GI50 [26]: 1890 nM
TGI [26]: 4220 nM
GI50 [27]: 3380 nM
TGI [27]: 57000 nM
GI50 [58]: 3220 nM
TGI [58]: 24000 nM
GI50 [28]: 2400 nM
TGI [28]: 6620 nM
GI50 [29]: 1840 nM
TGI [29]: 6580 nM
GI50 [30]: 7430 nM
TGI [30]: 24600 nM
GI50 [31]: 3340 nM
TGI [31]: 15500 nM
GI50 [32]: 4270 nM
TGI [32]: > 100000 nM
GI50 [33]: 3550 nM
TGI [33]: 13800 nM
GI50 [34]: 3870 nM
TGI [34]: 16500 nM
GI50 [35]: 3290 nM
TGI [35]: 12500 nM
GI50 [36]: 4810 nM
TGI [36]: 17200 nM
GI50 [37]: 2890 nM
TGI [37]: 12300 nM
GI50 [38]: 3630 nM
TGI [38]: 15900 nM
GI50 [39]: 4000 nM
TGI [39]: 19200 nM
GI50 [40]: 3420 nM
TGI [40]: 28300 nM
GI50 [41]: 3520 nM
TGI [41]: 15400 nM
GI50 [42]: 3410 nM
TGI [42]: 12000 nM
GI50 [43]: 2680 nM
TGI [43]: 20900 nM
GI50 [44]: 3660 nM
TGI [44]: 21100 nM
GI50 [45]: 2480 nM
TGI [45]: 8370 nM
GI50 [46]: 1560 nM
TGI [46]: 6180 nM
GI50 [47]: 2890 nM
TGI [47]: 12200 nM
GI50 [48]: 3060 nM
TGI [48]: 13700 nM
GI50 [50]: 3460 nM
TGI [50]: 13700 nM
GI50 [51]: 3040 nM
TGI [51]: 24400 nM
GI50 [52]: 2970 nM
TGI [52]: 10500 nM
GI50 [53]: 4250 nM
TGI [53]: 14900 nM
GI50 [54]: 1620 nM
TGI [54]: 4660 nM
GI50 [55]: 2400 nM
TGI [55]: 10700 nM
GI50 [56]: 2740 nM
TGI [56]: 12900 nM
GI50 [57]: 2010 nM
TGI [57]: 9710 nM
